Entries after “also recorded” stand apart in the source; their conditions may differ.
Tests used:
human A1R = target: T1, human A1R (Homo sapiens, UniProt P30542); experiment: BRET assay for β-arrestin2 recruitment in HEK 293 cells; assay type: cell-based; conditions: data not shown
T1 sequence (P30542 1-326): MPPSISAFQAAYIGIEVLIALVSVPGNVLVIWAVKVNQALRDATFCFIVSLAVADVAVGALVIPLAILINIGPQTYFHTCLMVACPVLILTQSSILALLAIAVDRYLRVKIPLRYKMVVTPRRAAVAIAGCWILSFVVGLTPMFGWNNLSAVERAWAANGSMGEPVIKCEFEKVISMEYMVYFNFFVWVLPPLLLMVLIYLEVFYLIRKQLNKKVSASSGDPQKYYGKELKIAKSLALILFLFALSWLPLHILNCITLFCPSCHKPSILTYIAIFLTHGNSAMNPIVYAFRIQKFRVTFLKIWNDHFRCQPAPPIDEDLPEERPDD
Experimental: (§1) Data Analysis. […] Statistical significance was tested as indicated in the text using paired or unpaired t-tests or one-way or two-way ANOVAs with repeated measures (RM) as appropriate. Bonferroni corrections for multiple comparisons were performed. All in vitro cell signalling assay data was analysed using Prism 7.0e (Graphpad software, San Diego, Calif.), with all concentration-response curves being fitted using a 3 parameter logistic equation to calculate response range and IC50. All cAMP data was normalised to a forskolin concentration-response curve ran in parallel to each assay. […] Radioligand displacement curves were fitted to the one-site competition binding equation yielding log Ki values. […] To determine the extent of ligand-induced recruitment of β-arrestin2-YFP to either the A1R or A3R, the BRET signal was calculated by subtracting the 530 nm/450 nm emission for vehicle-treated cells from ligand-treated cells (ligand-induced ΔBRET). ΔBRET for each concentration at 5 minutes (maximum response) was used to produce concentration-response curves.

isolated frog heart = experiment: Frog heart preparation, heart rate; parameters: species or system Xenopus leavis; conditions: adenosine 30 μM, BnOCPA 300 nM
Experimental: Frog heart preparation: Xenopus […] frogs (young adult males) were supplied from Portsmouth Xenopus Resource Centre. Frogs were euthanized with MS222 (0.2% at a pH of 7), decapitated and pithed. The animals were dissected to reveal the heart and the pericardium carefully removed. Heart contractions were measured with a force transducer (AD instruments). Heart rate was acquired via a PowerLab […] (AD instruments) controlled by LabChart 7 (AD instruments). The heart was regularly washed with ringer and drugs were applied directly to the heart.

[1] = system: seizure activity induced in hippocampal slices; experiment: Seizure model in hippocampal slices (no added Mg2+, 6 mM K+ aCSF); assay type: cell-based, rat; conditions: adenosine 20-100 μM, NECA 300 nM, CPA 300 nM, BnOCPA 300 nM to 1 μM
Experimental: (§2) Preparation of hippocampal slices: Sagittal slices of hippocampus (300-400 μm) were prepared from male Sprague Dawley rats, at postnatal days 12 to 20. Rats were kept on a 12-hour light-dark cycle with slices made 90 minutes after entering the light cycle. […] The brain was removed, cut down the mid line and the two sides of the brain stuck down to a metal base plate. […] Slices were stored at 34° C. for 1 to 6 hours in aCSF (1 mM MgCl2, 2 mM CaCl2) before use.
Seizure model: Seizure activity was induced in hippocampal slices using aCSF which contained no added Mg^2+ and with the total K^+ concentration increased to 6 mM with KCl. Removal of extracellular Mg^2+ facilitates NMDA receptor activation producing long lasting EPSPS, which can sum together to produce tonic activation. Increasing the extracellular concentration of K^+ depolarises neurons leading to firing and release of glutamate to sustain activity. Both the increase in K^+ concentration and removal of Mg^2+ are required to produce spontaneous activity in hippocampal slices. Spontaneous activity was measured with an aCSF-filled microelectrode placed within stratum radiatum in CA1.

[2] = system: membrane potential of pyramidal cells; experiment: Whole cell current clamp recording of membrane potential, CA1 pyramidal cells; assay type: cell-based, rat
Experimental: as §2
Whole cell patch clamp recording from hippocampal pyramidal cells: A slice was transferred to the recording chamber and perfused at 3 mL/min with aCSF at 32±0.5° C. Slices were visualised using IR-DIC optics with an Olympus BX151W microscope (Scientifica) and a CCD camera (Hitachi). […] Voltage and current recordings were obtained using an Axon Multiclamp 700B amplifier (Molecular Devices, USA) and digitised at 20 KHz. Data acquisition and analysis was performed using Pclamp 10 (Molecular Devices). For voltage clamp experiments, CA1 pyramidal cells were held at −60 mV. Peptides to interfere with G protein signalling were introduced via the patch pipette into the recorded cell.

[3] = system: urethane-anaesthetised, spontaneously breathing adult rats; experiment: In vivo anaesthetised rat preparation, respiration
Source text: In vivo anaesthetised rat preparation for cardiorespiratory recordings: Anaesthesia was induced in adult male Sprague Dawley rats (230-330 g) with isofluorane (2-4%; Piramal Healthcare). The femoral vein was catheterised for drug delivery. Anaesthesia was maintained with urethane (1.2-1.7 g/kg; Sigma) in sterile saline delivered via the femoral catheter. The femoral artery was catheterised and connected to a pressure transducer (Digitimer) to record arterial blood pressure. […] The rats were then allowed to stabilise before the experiments began. […] Arterial blood pressure recordings were used to derive heart rate (HR: beats·minute^−1; BPM), and to calculate mean arterial blood pressure (MAP: Diastolic pressure+⅓*[Systolic Pressure−Diastolic pressure]). Airflow measurements were used to calculate: tidal volume (VT; mL; pressure sensors were calibrated with a 3 mL syringe), and respiratory frequency (f; breaths·min-1; BrPM). Minute ventilation (VE; mL·min-1) was calculated as f×VT.
Adult male Sprague Dawley rats (400-500 g) were anaesthetised with urethane and instrumented as described above, with the exception that the arterial cannulation was not performed.
After a 20 minutes recovery period CPA (6.3 μg·kg^−1) was administered. All injections were administered IV as a 350 μl·kg^−1 bolus. Changes in f, VT, and VE were measured. If the dosing occurred close to a respiratory event such as a sigh a second IV dose was administered, with 20 minute recovery periods either side of the injection.
One-way ANOVAs, with repeated measures as appropriate, and with Bonferroni correction for multiple comparisons were used. Statistical significance for the effects of IV saline was tested using paired t-tests. Data are reported throughout as mean±SEM and n values are reported for each experiment. […] The significance level was set at P<0.05, with actual P values reported in the figure legends and summaries, by way of abbreviations and asterisks, on the graphs: ns, not significant; * P<0.05; **, P<0.02; ***, P<0.001; ****, P<0.0001.

Goa = assay type: cell-based, human; conditions: PTX-treated cells
Experimental: (§3) Cells were then incubated for 24 hours before addition of 100 ng/ml PTX, to inhibit activity of endogenous Gαi/o, and then incubated for a further 16-18 hours. Transfected cells were then assayed as per cAMP inhibition experiments, but co-stimulated with agonist and 100 nM forskolin.
as §1

[4] = system: urethane-anaesthetised, spontaneously breathing adult rats; experiment: In vivo anaesthetised rat preparation, heart rate and mean arterial blood pressure; conditions: IV; adenosine 1 mg·kg^−1, BnOCPA 10 μg·kg^−1, CPA 420 ng·kg^−1
[5] = system: synaptic transmission in spinal nociceptive afferents; experiment: Dorsal root afferent-evoked EPSPs in dorsal horn neurones, rat spinal cord slices; assay type: cell-based; conditions: rat lumbar spinal cord slices, 0.1 Hz
Experimental: Spinal cord slice preparation: Adult male Sprague-Dawley rats, aged 8-12 weeks (260-280 g), were housed in an air-conditioned room on a 12 hour light/dark cycle with food and water available ad libitum. Rats were terminally anaesthetized using isofluorane and decapitated. […] A laminectomy was performed and the spinal cord and associated roots gently dissected and teased out of the spinal column and surrounding tissues. Dura and pia mater and ventral roots were subsequently removed with fine forceps and the spinal cord hemisected. Care was taken to ensure dorsal root inputs to the spinal cord were maintained. The hemisected spinal cord-dorsal root preparations were secured to a tissue slicer and spinal cord slices (400-450 μm thick) with dorsal roots attached cut in chilled (<4° C.) high sucrose aCSF using a Leica VT1000s microtome. Slices were transferred to a small beaker containing ice-cold standard aCSF (see below) and rapidly warmed to 35±1° C. in a temperature-controlled water bath over a 20 minute period, then subsequently removed and maintained at room temperature (22±2° C.) prior to electrophysiological recording.
Spinal cord electrophysiological recording: For electrophysiological recording, a spinal cord slice was transferred to a custom-built chamber. […]

[6] = system: synaptic transmission in the hippocampus; experiment: Extracellular fEPSP recording in hippocampal slices (synaptic transmission); assay type: cell-based, rat; conditions: rat hippocampal slices, CA1; read-out: IC50, inhibition of synaptic transmission (fEPSP slope)
Experimental: as §2
Extracellular recording: A slice was transferred to the recording chamber, submerged in aCSF and perfused at 4 to 6 mL/min (32° C.). The slice was placed on a grid allowing perfusion above and below the tissue and all tubing was gas tight (to prevent loss of oxygen). For extracellular recording, an aCSF filled microelectrode was placed on the surface of stratum radiatum in CA1. […] For fEPSPs a 10 to 20 minute baseline was recorded at a stimulus intensity that gave 40 to 50% of the maximal response. […] For fEPSP slope, a 1 ms linear region after the fibre volley was measured. Extracellular recordings were made independently on two electrophysiology rigs.
Statistical significance was tested using the unpaired t-test and one-way and two-way ANOVAs with Bonferroni correction for multiple comparisons.
as §1

human (h) A1R = target: T2, human (h) A1R (Homo sapiens, UniProt P30542); experiment: Radioligand binding, [3H]DPCPX, membranes of CHO-K1-hA1R cells; conditions: displacement of [3H]DPCPX
T2 sequence (P30542 1-326): T1 sequence (P30542 1-326)
Experimental: Radioligand binding. Radioligand displacement assays were conducted using crude membrane preparations (100 μg protein per tube) acquired from homogenisation of CHO-K1-hA1R cells in ice-cold buffer (2 mM MgCl2, 20 mM HEPES, pH 7.4). […] Non-specific binding was determined in the presence of 10 μM DPCPX. […] Free radioligand was separated from bound radioligand by filtration through Whatman® glass microfiber GF/B 25 mm filters (Sigma-Aldrich). Each filter was then placed in a Sterilin™ scintillation vial and radioactivity determined by: addition of 4 mL of Ultima Gold XR liquid scintillant (PerkinElmer), overnight incubation at room temperature and the retained radioactivity determined using a Beckman Coulter LS 6500 Multi-purpose scintillation counter (Beckman Coulter Inc.; Indiana, USA).
Data Analysis. […] Statistical significance was tested as indicated in the text using paired or unpaired t-tests or one-way or two-way ANOVAs with repeated measures (RM) as appropriate. Bonferroni corrections for multiple comparisons were performed. All in vitro cell signalling assay data was analysed using Prism 7.0e (Graphpad software, San Diego, Calif.), with all concentration-response curves being fitted using a 3 parameter logistic equation to calculate response range and IC50. All cAMP data was normalised to a forskolin concentration-response curve ran in parallel to each assay. […]

Gob = experiment: cAMP accumulation in PTX-pre-treated CHO-K1-hA1R cells transfected with PTX-insensitive Gob; assay type: cell-based, human
Experimental: as §3, §1

[7] = IV bolus, BnOCPA 8.3 ug/kg, CPA 6.3 μg·kg^−1

`OC[C@H]1O[C@@H](n2cnc3c(NC4CCCC4)ncnc32)[C@H](O)[C@@H]1O` [CPA, N-Cyclopentyladenosine] was tested, and the “β-arrestin recruitment at the A1R” value (human A1R) was “no β-arrestin recruitment”, the “effect on isolated frog heart rate” value (isolated frog heart) was “reduced the isolated frog heart rate similar to adenosine” and the “reduction / change of heart rate” value (isolated frog heart; CPA) was 6.2±0.5 BPM. For the same compound, the “effect on seizure activity” value [1] was “completely suppressed neuronal firing; also recorded: abolished seizure activity”, the “mean hyperpolarisation by CPA in the presence of BnOCPA” value ([2]; CPA 300 nM after BnOCPA 300 nM, 10 minutes) was 2.7±2 mV and the “membrane potential after agonist” value ([2]; adenosine 100 μM, CPA 300 nM) was −71.3±1.4 mV. For the same compound, the “mean change of membrane potential (hyperpolarisation)” value ([2]; adenosine 100 μM, CPA 300 nM, BnOCPA 300 nM-1 μM) was −7.3±0.85 mV, the “effect on membrane potential” value ([2]; example traces, CA1 pyramidal cells) was “hyperpolarised the membrane potential” and the “minute ventilation (VE) after injection” value [3, 7] was 99 ± 19 mL/min. For the same compound, the “respiratory frequency (f) after injection” value [3, 7] was 108±10 BrPM, the “tidal volume (VT) after injection” value [3, 7] was 0.8 ± 0.1 mL and the effect on respiration ([3]; intravenous injection) was “caused significant respiratory depression”. The “activation of / coupling to Goa” value (Goa) was “coupled to a range of Gi/o subunits, and in particular Goa”, the “change of HR” value [4] was “about 50%” and the “heart rate (HR) after injection” value [4] was 207±29 BPM. For the same compound, the “mean arterial blood pressure (MAP) after injection” value [4] was 51±5 mmHg, the “effect on dorsal root afferent-evoked EPSPs” value [5] was “significant reduction in amplitude of the EPSPs in CPA, comparable to that of BnOCPA” and the IC50 [6] was 11.8 ± 2.7 nM. The “binding affinity at the A1R (comparison)” value (human (h) A1R) was “equal affinity” and the “inhibition of cAMP accumulation via Gob” value (Gob) was “inhibit cAMP accumulation through coupling to Gob”.

Source: patent publication US20220152077A1 (THE UNIVERSITY OF WARWICK, priority 2019, published 2022)
